Reference: patent US9115133B2, “Substituted fused tricyclic compounds, compositions and medicinal applications thereof” (Advinus Therapeutics Limited, priority 2011, dated 2015)

Columns and labels:
Assay type in all cases: biochemical
Conditions in all cases: 200 μg/ml Poly Glu-Tyr (4:1), ATP 1 uM, 90 min room temperature, luminescence
[1] = biological target: T1, Recombinant JAK1 (Amino acids 850-1154) (Homo sapiens, UniProt P23458); test: Kinase-Glo Luminescent Kinase Assay, recombinant JAK1
T1 construct: Recombinant JAK1 (Amino acids 850-1154; NM_002227.2); made in house; host or cells: baculovirus expression system (Bac-to-Bac)
Source text: (§1) Recombinant JAK1 (Amino acids 850-1154; NM_002227.2), JAK2 (Amino acids 808-1132; NM_004972.3) and JAK3 (Amino acids 781-1124; NM_000215.3) used in the studies were expressed using Invitrogen's Bac-to-Bac baculovirus expression system according to manufacturer's instructions. Adenosine 5′-triphosphate was obtained from Sigma Aldrich chemicals (Cat # A7699). Poly Glu-Tyr (4:1) sodium salt was obtained from Sigma Aldrich (Cat # P0275), Kinase Glo® Luminescent Kinase assay kit was obtained from Promega (Cat # V6713) Kinase activity was assessed by Promega Kinase-Glo® Luminescent Kinase Assay kit using 200 μg/ml Poly Glu-Tyr (4:1) as substrate and ATP at 1 uM concentration. The reactions were carried out in 384 well plates in total reaction volume of 20 uL. Reaction mixtures contained 50 mM HEPES pH 7.4, 5 mM MgCl2, 1 mM DTT, 0.01% BSA, 0.01% Tween 20. Kinase was pre-incubated with compounds or 1% DMSO for 5 min before addition of substrate and ATP to check for inhibition. Kinase reactions were carried out at room temperature for 90 min. The reactions were stopped by adding 5 μl of Kinase Glo® reagent & 10 μl of reaction mixture followed by measuring luminescence. The luminescent signal is correlated with the amount of ATP present at the end of kinase reaction and is inversely correlated with the amount of kinase activity. For each data point, % inhibition is calculated based on uninhibited reaction (without compound) which is considered as 100% activity over no enzyme or substrate controls. Dose response data is then fit using a four parameter logistic equation using Graph-pad Prism 5 software to determine inhibition constant 50 (IC50).

[2] = biological target: T2, Recombinant JAK2 (Amino acids 808-1132) (Homo sapiens, UniProt O60674); test: Kinase-Glo Luminescent Kinase Assay, recombinant JAK2
T2 construct: JAK2 (Amino acids 808-1132; NM_004972.3); made in house; host or cells: baculovirus expression system (Bac-to-Bac)
Source text: as §1

[3] = biological target: T3, Recombinant JAK3 (Amino acids 781-1124) (Homo sapiens, UniProt P52333); test: Kinase-Glo Luminescent Kinase Assay, recombinant JAK3
T3 construct: JAK3 (Amino acids 781-1124; NM_000215.3); made in house; host or cells: baculovirus expression system (Bac-to-Bac)
Source text: as §1

T3 sequence (P52333 781-1124): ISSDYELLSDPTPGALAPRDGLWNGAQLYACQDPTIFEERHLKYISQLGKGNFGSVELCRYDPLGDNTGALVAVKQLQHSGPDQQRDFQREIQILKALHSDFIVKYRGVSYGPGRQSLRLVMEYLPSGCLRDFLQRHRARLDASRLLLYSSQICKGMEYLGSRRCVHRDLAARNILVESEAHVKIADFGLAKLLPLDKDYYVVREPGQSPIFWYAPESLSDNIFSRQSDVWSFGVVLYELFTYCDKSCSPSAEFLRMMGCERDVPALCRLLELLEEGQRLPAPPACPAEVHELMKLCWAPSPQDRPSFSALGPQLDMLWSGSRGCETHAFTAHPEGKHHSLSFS
T2 sequence (O60674 808-1132): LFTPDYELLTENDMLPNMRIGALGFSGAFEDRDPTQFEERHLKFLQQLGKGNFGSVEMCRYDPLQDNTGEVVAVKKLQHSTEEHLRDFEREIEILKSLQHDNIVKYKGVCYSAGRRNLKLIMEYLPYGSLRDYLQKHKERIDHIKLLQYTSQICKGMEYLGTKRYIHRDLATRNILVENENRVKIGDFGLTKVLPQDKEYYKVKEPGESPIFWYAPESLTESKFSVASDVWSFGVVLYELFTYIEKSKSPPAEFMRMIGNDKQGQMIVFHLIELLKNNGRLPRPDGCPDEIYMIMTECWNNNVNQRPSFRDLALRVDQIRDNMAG
T1 sequence (P23458 850-1154): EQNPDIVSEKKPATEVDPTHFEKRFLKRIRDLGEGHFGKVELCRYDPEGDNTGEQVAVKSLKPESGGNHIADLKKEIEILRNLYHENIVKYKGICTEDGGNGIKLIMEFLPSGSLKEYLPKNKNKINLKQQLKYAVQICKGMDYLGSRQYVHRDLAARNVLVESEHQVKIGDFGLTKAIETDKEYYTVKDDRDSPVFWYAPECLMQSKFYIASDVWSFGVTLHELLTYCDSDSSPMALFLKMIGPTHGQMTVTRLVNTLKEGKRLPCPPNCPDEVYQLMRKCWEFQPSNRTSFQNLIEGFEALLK

IC50 [1] [nM]	IC50 [2] [nM]	IC50 [3] [nM]	Structure (SMILES)
> 20	> 20	> 20	N#CCC(=O)N1CCC[C@H](c2ccnc3cnc4[nH]ccc4c23)C1 [Ex. 1A, (R)3-oxo-3-[3-(3H-pyrrolo[3,2-f][1,7]naphthyridin-9-yl)-1-piperidyl]propanenitrile]
1 to 20	1 to 20	< 1	N#CCC(=O)N1CCC[C@@H](c2ccnc3cnc4[nH]ccc4c23)C1 [Ex. 1B, (S)3-oxo-3-[3-(3H-pyrrolo[3,2-f][1,7]naphthyridin-9-yl)-1-piperidyl]propanenitrile]
1 to 20	1 to 20	1 to 20	O=C(CC(F)(F)F)N1CCC[C@H](c2ccnc3cnc4[nH]ccc4c23)C1 [Ex. 4A, (R)3,3,3-trifluoro-1-[3-(3H-pyrrolo[3,2-f][1,7]naphthyridin-9-yl)-1-piperidyl]propan-1-one]
1 to 20	1 to 20	1 to 20	CS(=O)(=O)N1CCC[C@@H](c2ccnc3cnc4[nH]ccc4c23)C1 [Ex. 10B, (S)9-(1-methylsulfonyl-3-piperidyl)-3H-pyrrolo[3,2-f][1,7]naphthyridine]
> 20	> 20	> 20	N#CCC(=O)N1CC[C@H](c2ccnc3cnc4[nH]ccc4c23)C1 [Ex. 14A, (R)3-oxo-3-[3-(3H-pyrrolo[3,2-f][1,7]naphthyridin-9-yl)pyrrolidin-1-yl]propanenitrile]
1 to 20	1 to 20	> 20	N#CCC(=O)N1CC[C@@H](c2ccnc3cnc4[nH]ccc4c23)C1 [Ex. 14B, (S)3-oxo-3-[3-(3H-pyrrolo[3,2-f][1,7]naphthyridin-9-yl)pyrrolidin-1-yl]propanenitrile]
> 20	> 20	> 20	O=C(CC(F)(F)F)N1CC[C@H](c2ccnc3cnc4[nH]ccc4c23)C1 [Ex. 15A, (R)3,3,3-trifluoro-1-[3-(3H-pyrrolo[3,2-f][1,7]naphthyridin-9-yl)pyrrolidin-1-yl]propan-1-one]
–	> 20	> 20	O=C(NC1CC1)[C@H]1CCCN(c2ccnc3cnc4[nH]ccc4c23)C1 [Ex. 61A, (3S)-N-cyclopropyl-1-(3H-pyrrolo[3,2-f][1,7]naphthyridin-9-yl)piperidine-3-carboxamide]

Further lines, the molecule ahead of its results:

Structure (SMILES)	IC50 [1] [nM]	IC50 [2] [nM]	IC50 [3] [nM]
CC(C)(C)OC(=O)N1CCCC(c2ncnc3cnc4[nH]ccc4c23)C1 (stereo not shown) [Comp. 55, 3-(3H-3,4,6,8-Tetraaza-cyclopenta[a]naphthalen-9-yl)-piperidine-1-carboxylic acid tert-butyl ester]	1 to 20	> 20	> 20
N#CCC(=O)N1CCCC(c2ccnc3cnc4[nH]ccc4c23)C1 (stereo not shown) [Ex. 1, 3-oxo-3-[3-(3H-pyrrolo[3,2-f][1,7]naphthyridin-9-yl)-1-piperidyl]propanenitrile]	1 to 20	1 to 20	1 to 20
CCS(=O)(=O)N1CCCC(c2ccnc3cnc4[nH]ccc4c23)C1 (stereo not shown) [Ex. 9, 9-(1-ethylsulfonyl-3-piperidyl)-3H-pyrrolo[3,2-f][1,7]naphthyridine]	1 to 20	1 to 20	1 to 20
CS(=O)(=O)N1CCCC(c2ccnc3cnc4[nH]ccc4c23)C1 (stereo not shown) [Ex. 10, 9-(1-methylsulfonyl-3-piperidyl)-3H-pyrrolo[3,2-f][1,7]naphthyridine]	1 to 20	1 to 20	1 to 20
CC(C)S(=O)(=O)N1CCCC(c2ccnc3cnc4[nH]ccc4c23)C1 (stereo not shown) [Ex. 11, 9-(1-isopropylsulfonyl-3-piperidyl)-3H-pyrrolo[3,2-][1,7]naphthyridine]	> 20	> 20	> 20
CS(=O)(=O)CC(=O)N1CCCC(c2ccnc3cnc4[nH]ccc4c23)C1 (stereo not shown) [Ex. 12, 2-methylsulfonyl-1-[3-(3H-pyrrolo[3,2-f][1,7]naphthyridin-9-yl)-1-piperidyl]ethanone]	1 to 20	1 to 20	> 20
CC(C)NC(=O)N1CCCC(c2ccnc3cnc4[nH]ccc4c23)C1 (stereo not shown) [Ex. 13, N-isopropyl-3-(3H-pyrrolo[3,2-f][1,7]naphthyridin-9-yl)piperidine-1-carboxamide]	> 20	> 20	> 20
N#CCC(=O)N1CCC(c2ccnc3cnc4[nH]ccc4c23)C1 (stereo not shown) [Ex. 14, 3-oxo-3-[3-(3H-pyrrolo[3,2-f][1,7]naphthyridin-9-yl)pyrrolidin-1-yl]propanenitrile]	1 to 20	1 to 20	> 20
O=C(CC(F)(F)F)N1CCC(c2ccnc3cnc4[nH]ccc4c23)C1 (stereo not shown) [Ex. 15, 3,3,3-trifluoro-1-[3-(3H-pyrrolo[3,2-f][1,7]naphthyridin-9-yl)pyrrolidin-1-yl]propan-1-one]	1 to 20	1 to 20	> 20
N#CCS(=O)(=O)N1CCC(c2ccnc3cnc4[nH]ccc4c23)C1 (stereo not shown) [Ex. 16, 2-[3-(3H-pyrrolo[3,2-f][1,7]naphthyridin-9-yl)pyrrolidin-1-yl]sulfonylacetonitrile]	1 to 20	1 to 20	> 20
O=S(=O)(N1CCC(c2ccnc3cnc4[nH]ccc4c23)C1)C(F)(F)F (stereo not shown) [Ex. 17, 9-[1-(trifluoromethylsujlfonyl)pyrrolidin-3-yl]-3H-pyrrolo[3,2-f][1,7]naphthyridine]	> 20	1 to 20	> 20
CC(C)CS(=O)(=O)N1CCC(c2ccnc3cnc4[nH]ccc4c23)C1 (stereo not shown) [Ex. 18, 9-(1-isobutylsulfonylpyrrolidin-3-yl)-3H-pyrrolo[3,2-f][1,7]naphthyridine]	1 to 20	1 to 20	> 20
CCS(=O)(=O)N1CCC(c2ccnc3cnc4[nH]ccc4c23)C1 (stereo not shown) [Ex. 19, 9-(1-ethylsulfonylpyrrolidin-3-yl)-3H-pyrrolo[3,2-f][1,7]naphthyridine]	1 to 20	1 to 20	> 20
CS(=O)(=O)N1CCC(c2ccnc3cnc4[nH]ccc4c23)C1 (stereo not shown) [Ex. 20, 9-(1-methylsulfonylpyrrolidin-3-yl)-3H-pyrrolo[3,2-f][1,7]naphthyridine]	1 to 20	1 to 20	> 20
CC(C)CC(=O)N1CCCC(c2ncnc3cnc4[nH]ccc4c23)C1 (stereo not shown) [Ex. 21, 3-Methyl-1-[3-(3H-3,4,6,8-tetraazacyclopenta[a]naphthalen-9-yl)-piperidin-1-yl]-butan-1-one]	> 20	> 20	> 20
c1cc(N2CCC(OCC3CC3)C2)c2c(cnc3[nH]ccc32)n1 (stereo not shown) [Ex. 59, 9-[3-(cyclopropylmethoxy)pyrrolidin-1-yl]-3H-pyrrolo[3,2-f][1,7]naphthyridine]	–	> 20	1 to 20
O=C(NC1CC1)C1CCCN(c2ccnc3cnc4[nH]ccc4c23)C1 (stereo not shown) [Ex. 61, N-cyclopropyl-1-(3H-pyrrolo[3,2-f][1,7]naphthyridin-9-yl)piperidine-3-carboxamide]	–	> 20	> 20
CN(CC1CC1)C1CCN(c2ccnc3cnc4[nH]ccc4c23)C1 (stereo not shown) [Ex. 62, N-(cyclopropylmethyl)-N-methyl-1-(3H-pyrrolo[3,2-f][1,7]naphthyridin-9-yl)pyrrolidin-3-amine]	–	> 20	> 20
O=S(=O)(CC(F)(F)F)NC1CCCN(c2ccnc3cnc4[nH]ccc4c23)C1 (stereo not shown) [Ex. 86, 2,2,2-trifluoro-N-[1-(3H-pyrrolo[3,2-f][1,7]naphthyridin-9-yl)-3-piperidyl] ethanesulfonamide]	–	1 to 20	1 to 20
O=S(=O)(CC(F)(F)F)NC1CCN(c2ccnc3cnc4[nH]ccc4c23)C1 (stereo not shown) [Ex. 90, 2,2,2-trifluoro-N-[1-(3H-pyrrolo[3,2-f][1,7]naphthyridin-9-yl)pyrrolidin-3-yl] ethanesulfonamide]	–	1 to 20	1 to 20
O=S(=O)(NC1CCN(c2ccnc3cnc4[nH]ccc4c23)C1)C1CC1 (stereo not shown) [Ex. 91, N-[1-(3H-pyrrolo[3,2-f][1,7]naphthyridin-9-yl)pyrrolidin-3-yl]cyclopropanesulfon-amide]	–	1 to 20	> 20
CC(C)S(=O)(=O)NC1CCN(c2ccnc3cnc4[nH]ccc4c23)C1 (stereo not shown) [Ex. 92, N-[1-(3H-pyrrolo[3,2-f][1,7]naphthyridin-9-yl)pyrrolidin-3-yl]propane-2-sulfonamide]	–	1 to 20	> 20
